Holding throughout (test): whole-cell patch clamp in transfected CHOK1 cells
What all share (assay type): cell-based
For orientation: The patch-clamp technique gives a direct electrical read-out from membranes.

Assay [1] has as its target Nav1.4 (Homo sapiens, UniProt P35499, F432W/I1280W/I1583W/V787W).
Assay [2] deals with T1, Nav1.4 (Homo sapiens, UniProt P35499). The following applies: CHO-K1, read-out: % block at 350 μM.
The target of assay [3] is Nav1.4 (Homo sapiens, UniProt P35499, F1586A).
Nav1.4 (Homo sapiens, UniProt P35499, F1586A), sequence (P35499 whole entry F1586A): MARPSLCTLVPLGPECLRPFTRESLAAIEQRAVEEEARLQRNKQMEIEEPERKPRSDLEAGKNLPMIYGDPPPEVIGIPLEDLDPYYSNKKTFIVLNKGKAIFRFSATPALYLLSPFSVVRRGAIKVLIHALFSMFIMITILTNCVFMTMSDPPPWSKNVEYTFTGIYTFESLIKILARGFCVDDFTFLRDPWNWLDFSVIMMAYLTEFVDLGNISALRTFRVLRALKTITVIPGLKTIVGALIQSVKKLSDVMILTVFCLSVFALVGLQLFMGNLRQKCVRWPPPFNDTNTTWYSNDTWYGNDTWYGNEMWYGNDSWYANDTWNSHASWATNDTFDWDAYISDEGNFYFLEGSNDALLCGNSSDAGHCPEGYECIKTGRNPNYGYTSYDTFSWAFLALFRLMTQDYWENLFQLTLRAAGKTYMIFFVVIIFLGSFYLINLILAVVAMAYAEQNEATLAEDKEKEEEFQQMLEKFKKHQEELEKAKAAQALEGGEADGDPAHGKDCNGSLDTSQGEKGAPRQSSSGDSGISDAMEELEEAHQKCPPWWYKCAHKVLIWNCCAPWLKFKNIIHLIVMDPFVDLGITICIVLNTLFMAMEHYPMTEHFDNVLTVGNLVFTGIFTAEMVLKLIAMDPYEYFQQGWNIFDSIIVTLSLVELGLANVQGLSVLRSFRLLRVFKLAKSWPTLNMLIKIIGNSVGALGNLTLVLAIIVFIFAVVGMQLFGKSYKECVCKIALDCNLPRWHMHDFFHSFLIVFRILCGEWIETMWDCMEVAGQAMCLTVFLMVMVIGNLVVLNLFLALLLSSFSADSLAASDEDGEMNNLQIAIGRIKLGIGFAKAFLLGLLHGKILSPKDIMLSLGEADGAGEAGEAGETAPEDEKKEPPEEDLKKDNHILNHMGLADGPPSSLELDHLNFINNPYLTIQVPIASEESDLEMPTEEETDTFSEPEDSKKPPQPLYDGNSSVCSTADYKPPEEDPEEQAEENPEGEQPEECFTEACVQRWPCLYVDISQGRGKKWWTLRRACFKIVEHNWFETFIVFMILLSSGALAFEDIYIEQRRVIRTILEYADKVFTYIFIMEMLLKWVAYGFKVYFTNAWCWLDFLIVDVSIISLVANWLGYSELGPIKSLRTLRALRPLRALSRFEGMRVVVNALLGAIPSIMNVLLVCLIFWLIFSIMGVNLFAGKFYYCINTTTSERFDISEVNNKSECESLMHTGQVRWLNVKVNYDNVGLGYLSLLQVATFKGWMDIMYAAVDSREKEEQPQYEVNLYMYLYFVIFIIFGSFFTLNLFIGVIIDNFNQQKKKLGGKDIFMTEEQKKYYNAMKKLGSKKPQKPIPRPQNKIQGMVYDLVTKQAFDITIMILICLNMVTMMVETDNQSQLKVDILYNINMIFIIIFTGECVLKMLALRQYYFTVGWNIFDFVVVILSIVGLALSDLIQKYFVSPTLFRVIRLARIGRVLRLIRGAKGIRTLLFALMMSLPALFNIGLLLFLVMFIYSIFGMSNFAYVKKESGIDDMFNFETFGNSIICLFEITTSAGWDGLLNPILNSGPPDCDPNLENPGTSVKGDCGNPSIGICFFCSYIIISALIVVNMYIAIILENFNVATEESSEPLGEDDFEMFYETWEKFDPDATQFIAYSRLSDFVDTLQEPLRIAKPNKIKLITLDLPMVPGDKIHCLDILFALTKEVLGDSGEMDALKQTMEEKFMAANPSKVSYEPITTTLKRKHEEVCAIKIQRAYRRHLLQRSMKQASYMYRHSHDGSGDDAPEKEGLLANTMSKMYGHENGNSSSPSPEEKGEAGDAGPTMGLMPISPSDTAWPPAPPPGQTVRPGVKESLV
Nav1.4 (Homo sapiens, UniProt P35499, F1586A), sequence (Q07699 19-218 partner): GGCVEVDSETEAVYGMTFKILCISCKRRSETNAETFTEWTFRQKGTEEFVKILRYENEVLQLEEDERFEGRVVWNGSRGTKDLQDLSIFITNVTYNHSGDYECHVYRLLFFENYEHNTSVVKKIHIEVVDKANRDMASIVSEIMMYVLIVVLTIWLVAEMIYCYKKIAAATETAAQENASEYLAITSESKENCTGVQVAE
In assay [4] the target is T1, Nav1.4. Particulars: CHO-K1, read-out: % block at 1.1 mM.
[5] abbreviates: CHO-K1, read-out: % block at 1.1 mM.

Structures are written as SMILES.

Nav1.4 (Homo sapiens, UniProt P35499, F432W/I1280W/I1583W/V787W), sequence (P35499 whole entry F432W/V787W/I1280W/I1583W): as the sequence (P35499 whole entry F1586A) above, with F432W, V787W, I1280W, I1583W, A1586F counted along it
Nav1.4 (Homo sapiens, UniProt P35499, F432W/I1280W/I1583W/V787W), sequence (Q07699 19-218 partner): as the sequence (Q07699 19-218 partner) above
T1 sequence (P35499 whole entry): as the sequence (P35499 whole entry F1586A) above, with A1586F counted along it
T1 sequence (Q07699 19-218 partner): as the sequence (Q07699 19-218 partner) above

Consider `O=C(NCC1CCCCN1)c1cc(OCC(F)(F)F)ccc1OCC(F)(F)F` (stereo not drawn) [flecainide], for which the inhibition at 350 µM at Nav1.4 [1] (CHO-K1, read-out: % block at 350 μM) was determined as 76.4%; on Nav1.4 [2], 64.6%.

As for `CCN(CC)CC(=O)Nc1c(C)cccc1C` [lidocaine], the values for the inhibition at 1100 µM at Nav1.4 [1] (setting [5]), at Nav1.4 [3] (setting [5]) and at Nav1.4 [4] were 53.6%, 24.6% and 60.6%, respectively.

On to `C=C(C)[C@@H]1CCC(C)=C[C@H]1c1c(O)cc(CCCCC)cc1O` [Cannabidiol], for which the inhibition at 10 µM on Nav1.4 [3] (CHO-K1, read-out: % block at 10 μM) is 25.3%.

The record behind these values is PMC8042605 (The Journal of General Physiology, 2021).
